This series is described as follows: Chemical stability on storage (chemical purity by HPLC). Type of series: physicochemical. The note with it: for reduction in chemical purity by HPLC (area %): following 1 week of storage at 40° C. and 75% relative humidity (40° C./75% RH).

On to `Cc1c(OCC(F)(F)F)ccnc1C[S@@+]([O-])c1nc2ccccc2[nH]1` [amorphous form, (R)-2-[[[3-methyl-4-(2,2,2-trifluoroethoxy)-2-pyridinyl]methyl]sulfinyl]-1H-benzimidazole, reference compound], for which the “reduction in chemical purity by HPLC (area %)” value was determined as 8.5 area %.

Turning to `Cc1c(OCC(F)(F)F)ccnc1C[S@@+]([O-])c1nc2ccccc2[nH]1`, the “chemical stability compared to other known forms of dexlansoprazole such as the amorphous form” value (qualitative statement, storage conditions not given) is reported as “increased chemical stability”.

Turning to `CC(O)CO.Cc1c(OCC(F)(F)F)ccnc1C[S@@+]([O-])c1nc2ccccc2[nH]1.O`, the “reduction in chemical purity by HPLC (area %)” value is recorded as “essentially unchanged”.

These data come from patent US9034904B2, “Forms of dexlansoprazole and processes for the preparation thereof” (APOTEX PHARMACHEM INC., priority 2009, dated 2015).
